“Also recorded” adds a separate entry of the source.
Tests used:
ATGL = test: Western blot of ATGL level in HepG2 cells; format: cell-based; set-up: key to Increase in ATGL level: + = slight or in insignificant; ++ = Moderate; +++ and ++++ = active; +++ and ++++ = active; +++++ = very active; conditions: for Increase in ATGL level: HepG2 cells, score; for Increase in ATGL level / ATGL level in HepG2 cells: western blot; for EC50: fold increase of ATGL by densitometry, as % of 1.6 fold maximum with siCOP1, doses 10-5000 nM, read-out: EC50 (in-vitro); for ATGL level in HepG2 cells: 24 hours, 10 μM screening or 50 nM-5 μM dose dependent
Outline: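 HepG2 cells were treated with compound 24 h (10 μM screen; 50 nM–5 μM dose series) and lysed. 30 μg protein was western blotted for ATGL, with actin as loading reference. ATGL increase was expressed as percent of the 1.6-fold siCOP1 maximum and plotted against log concentration for EC50.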

Plasma stability assay = format: in vitro ADME, human; conditions: for Mean % remaining at 2 hrs in human Plasma: 1 μM, 37° C., 120 min, LC-MS/MS; for Plasma stability: human plasma, after 2 hours, with respect to Propantheline
Experimental: 1 mM Stock of test compound was prepared from 10 mM initial stock solution of compounds by diluting 10 μL of 10 mM stock with 90 μL of DMSO. Then 10 μL of 1 mM stock was diluted with 90 µL of DMSO to give 100 μM concentration. The frozen plasma was thawed at room temperature and centrifuged at 1400 rpm at 4° C., for 15 minutes. Approximately […] of the clear supernatant fraction was transferred to a separate tube and was used for the assay. Final working stock of 1 μM was prepared by diluting 3 μL of 100 μM with 297 μL of plasma. Plasma containing the test compound was incubated for 120 min at 37° C. in shaker with 500 rpm. 50 μL of aliquot of sample at 0, 15, 30, 60 and 120 minutes were precipitated with 150 μL of acetonitrile containing internal standard and centrifuged at 4000 rpm at 4° C. for 20 minutes. 120 μL of supernatant was diluted with 120 μL of water and analyzed by LC-MS/MS.

[1] = Lipophilicity assay (octanol/buffer); format: physicochemical; conditions: for logD: n-octanol / 10 mM sodium phosphate buffer pH 7.4, LC-UV; for Lipophilicity class from Log D: pH 7.4
Experimental: 1.56 g NaH2PO4·2H2O was dissolved in 0.5 L water in a 1 L beaker. After adjusting pH to 7.4 using NaOH solution, the volume was made up to 1 L. Equal volumes of sodium phosphate buffer (10 mM, pH 7.4) and n-octanol were added to a separation funnel and mixed thoroughly by shaking and inverting the funnel several times. The two layers were allowed to separate for overnight and then dispensed in two separate glass bottles. 10 mM stock solution was prepared in 100% DMSO and stored at 4° C. 495 μL of organic phase (1-octanol) was added to each well of a 2 mL deep well plate, followed by 495 μL of buffer and 10 μL of test compound was added. The plate was incubated for 3 hr at room temperature on a plate shaker at 500 rpm. After incubation, the samples were allowed to equilibrate for 20 min and then centrifuged at 4000 rpm for 30 min for complete phase separation and analysed by LC-UV.
Log D=Log (area of octanol/area of buffer)

COCC(C)n1cnc2ccc(NC(=O)Nc3cccc(C(C)=O)c3)cc2c1=O (stereo not drawn) [Compound 179, 1-(3-acetylphenyl)-3-(3-(1-methoxypropan-2-yl)-4-oxo-3,4-dihydroquinazolin-6-yl)urea]
Increase in ATGL level (ATGL): +++++
Mean % remaining at 2 hrs in human Plasma (Plasma stability assay): 20.6%
Plasma stability (Plasma stability assay): lower plasma stability
logD [1]: 1.69
Lipophilicity class from Log D [1]: ideal lipophilicity

CC(=O)c1cccc(NC(=O)Nc2ccc3ncn(CCCN4CCOCC4)c(=O)c3c2)c1 [Compound 139, 1-(3-acetylphenyl)-3-(3-(3-morpholinopropyl)-4-oxo-3,4-dihydroquinazolin-6-yl)urea]
Increase in ATGL level (ATGL): +++
EC50 (ATGL): 1.19 nM
ATGL level in HepG2 cells (ATGL): increased ATGL level; also recorded: some sort of increase in ATGL level
Mean % remaining at 2 hrs in human Plasma (Plasma stability assay): 55.50%
Plasma stability (Plasma stability assay): good plasma stability
logD [1]: -0.5
Lipophilicity class from Log D [1]: hydrophilic

COCCn1c(C)nc2ccc(NC(=O)Nc3cccc(C(C)=O)c3)cc2c1=O [Compound 107, 1-(3-acetylphenyl)-3-(3-(2-methoxyethyl)-2-methyl-4-oxo-3,4-dihydroquinazolin-6-yl)urea]
Increase in ATGL level (ATGL): ++++

COCCn1cnc2ccc(NC(=O)Nc3cccc(C(C)=O)c3)cc2c1=O [Compound 9, 1-(3-acetylphenyl)-3-(3-(2-methoxyethyl)-4-oxo-3,4-dihydroquinazolin-6-yl)urea]
Increase in ATGL level (ATGL): +++++
ATGL level in HepG2 cells (ATGL): increased ATGL level
Mean % remaining at 2 hrs in human Plasma (Plasma stability assay): 16.9%
Plasma stability (Plasma stability assay): lower plasma stability

COCCn1c(-c2ccncc2)nc2ccc(NC(=O)Nc3cccc(C(C)=O)c3)cc2c1=O [Compound 219, 1-(3-acetylphenyl)-3-(3-(2-methoxyethyl)-4-oxo-2-(pyridin-4-yl)-3,4-dihydroquinazolin-6-yl)urea]
EC50 (ATGL): 29.5 nM
ATGL level in HepG2 cells (ATGL): increased ATGL level
Mean % remaining at 2 hrs in human Plasma (Plasma stability assay): 73.9%
Plasma stability (Plasma stability assay): good plasma stability
logD [1]: 0.19
Lipophilicity class from Log D [1]: hydrophilic

COCCn1c(CN2CCCCC2)nc2ccc(NC(=O)Nc3cccc(C(C)=O)c3)cc2c1=O [Compound 238, 1-(3-acetylphenyl)-3-(3-(2-methoxyethyl)-4-oxo-2-(piperidin-1-ylmethyl)-3,4-dihydroquinazolin-6-yl)urea]
Increase in ATGL level (ATGL): +++++
EC50 (ATGL): 1.02 nM
ATGL level in HepG2 cells (ATGL): increased ATGL level; also recorded: most potent in increasing ATGL and COP1 levels; also recorded: increase in ATGL and COP1 levels
Mean % remaining at 2 hrs in human Plasma (Plasma stability assay): 98.1%
Plasma stability (Plasma stability assay): good plasma stability
logD [1]: 1.6
Lipophilicity class from Log D [1]: ideal lipophilicity

COCCn1c(-c2cccnc2)nc2ccc(NC(=O)Nc3cccc(C(C)=O)c3)cc2c1=O [Compound 215, 1-(3-acetylphenyl)-3-(3-(2-methoxyethyl)-4-oxo-2-(pyridin-3-yl)-3,4-dihydroquinazolin-6-yl)urea]
EC50 (ATGL): 30.2 nM
ATGL level in HepG2 cells (ATGL): increased ATGL level
Mean % remaining at 2 hrs in human Plasma (Plasma stability assay): 80.70%
Plasma stability (Plasma stability assay): good plasma stability
logD [1]: 0.42
Lipophilicity class from Log D [1]: hydrophilic
